Test results from ChEMBL document CHEMBL1127298, “Bis-catechol-substituted redox-reactive analogues of hexamethonium and decamethonium: stimulated affinity-dependent reactivity through iron peroxide catalysis” (J Med Chem, 1994).

Legend:
Acetylcholine receptor [1] = target: T1, Acetylcholine receptor (Torpedo californica, UniProt P02710+P02712+P02714+P02718); experiment: Binding affinity against nicotinic acetylcholine receptor (nAChR); assay type: protein-complex assay, Tetronarce californica
Acetylcholine receptor [2] = target: T1, Acetylcholine receptor; experiment: Compound was evaluated for the binding constant for association with nicotinic acetylcholine receptor (nAChR); assay type: protein-complex assay, Tetronarce californica

T1 sequence (P02710 whole entry): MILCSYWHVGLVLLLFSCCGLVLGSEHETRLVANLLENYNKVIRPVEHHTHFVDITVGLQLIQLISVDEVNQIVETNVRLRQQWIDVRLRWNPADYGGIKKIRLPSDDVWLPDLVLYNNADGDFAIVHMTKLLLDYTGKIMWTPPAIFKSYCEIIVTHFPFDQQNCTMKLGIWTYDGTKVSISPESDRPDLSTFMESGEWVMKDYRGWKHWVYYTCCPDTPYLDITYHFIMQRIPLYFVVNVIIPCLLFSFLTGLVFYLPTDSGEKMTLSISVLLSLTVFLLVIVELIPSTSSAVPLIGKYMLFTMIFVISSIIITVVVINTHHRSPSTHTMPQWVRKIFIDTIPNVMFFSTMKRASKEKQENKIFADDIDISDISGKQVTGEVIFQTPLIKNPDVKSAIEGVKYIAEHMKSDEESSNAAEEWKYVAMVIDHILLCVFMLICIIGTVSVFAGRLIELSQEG
T1 sequence (P02712 whole entry): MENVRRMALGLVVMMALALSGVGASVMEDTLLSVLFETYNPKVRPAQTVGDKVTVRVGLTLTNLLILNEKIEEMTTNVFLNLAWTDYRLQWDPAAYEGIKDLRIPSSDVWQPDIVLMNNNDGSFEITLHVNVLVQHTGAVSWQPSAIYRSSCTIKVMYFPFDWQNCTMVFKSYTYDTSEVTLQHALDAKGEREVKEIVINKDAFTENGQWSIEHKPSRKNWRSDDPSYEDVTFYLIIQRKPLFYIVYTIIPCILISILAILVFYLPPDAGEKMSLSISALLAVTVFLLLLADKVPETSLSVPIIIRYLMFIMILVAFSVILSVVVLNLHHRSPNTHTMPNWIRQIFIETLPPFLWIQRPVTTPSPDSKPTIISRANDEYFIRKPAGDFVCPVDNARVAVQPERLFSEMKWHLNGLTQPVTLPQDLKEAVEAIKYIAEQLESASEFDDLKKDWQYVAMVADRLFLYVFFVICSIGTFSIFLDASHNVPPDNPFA
T1 sequence (P02718 whole entry): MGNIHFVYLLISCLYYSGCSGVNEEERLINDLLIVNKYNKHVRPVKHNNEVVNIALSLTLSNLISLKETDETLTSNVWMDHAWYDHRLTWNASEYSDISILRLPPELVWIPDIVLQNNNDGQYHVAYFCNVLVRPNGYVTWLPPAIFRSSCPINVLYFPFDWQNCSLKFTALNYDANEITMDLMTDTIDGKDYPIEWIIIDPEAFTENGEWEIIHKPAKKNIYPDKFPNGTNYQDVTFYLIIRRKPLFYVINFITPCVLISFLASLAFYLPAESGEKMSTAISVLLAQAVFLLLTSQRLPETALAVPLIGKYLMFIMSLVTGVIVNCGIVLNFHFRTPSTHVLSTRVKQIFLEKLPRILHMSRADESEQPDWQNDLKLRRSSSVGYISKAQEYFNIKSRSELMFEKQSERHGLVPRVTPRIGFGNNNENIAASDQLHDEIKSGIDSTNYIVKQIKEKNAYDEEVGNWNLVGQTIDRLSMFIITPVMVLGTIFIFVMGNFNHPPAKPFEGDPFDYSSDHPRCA
T1 sequence (P02714 whole entry): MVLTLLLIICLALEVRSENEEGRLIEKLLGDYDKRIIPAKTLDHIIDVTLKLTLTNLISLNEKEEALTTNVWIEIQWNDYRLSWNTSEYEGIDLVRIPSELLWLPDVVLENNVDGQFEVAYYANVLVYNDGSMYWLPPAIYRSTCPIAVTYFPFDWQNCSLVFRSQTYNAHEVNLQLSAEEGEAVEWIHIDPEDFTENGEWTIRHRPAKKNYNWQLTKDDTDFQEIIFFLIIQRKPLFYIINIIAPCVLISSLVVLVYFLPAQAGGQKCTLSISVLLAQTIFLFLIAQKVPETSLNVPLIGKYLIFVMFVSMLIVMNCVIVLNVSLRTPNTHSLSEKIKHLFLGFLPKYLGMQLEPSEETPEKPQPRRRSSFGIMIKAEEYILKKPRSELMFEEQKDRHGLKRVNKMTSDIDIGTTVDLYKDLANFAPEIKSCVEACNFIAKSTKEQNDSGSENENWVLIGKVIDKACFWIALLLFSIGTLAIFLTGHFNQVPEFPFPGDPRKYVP

| Structure (SMILES) | Ki (Acetylcholine receptor [1]) [nM] | Kd (Acetylcholine receptor [2]) [nM] |
| --- | --- | --- |
| C[N+](C)(CCCCCC[N+](C)(C)Cc1cccc(O)c1O)Cc1cccc(O)c1O | 18 | 18 |
| C[N+](C)(C)Cc1cccc(O)c1O | 28000 | – |
| C[N+](C)(C)CCCCCC[N+](C)(C)C [HEXAMETHONIUM BROMIDE] | – | 18 |
| C[N+](C)(CCCCCCCCCC[N+](C)(C)Cc1cccc(O)c1O)Cc1cccc(O)c1O | – | 230 |
